Key:
[1] = test system: angiotensin II-induced contraction of the isolated rabbit aorta; assay: Inhibition of angiotensin II-induced vascular contraction on isolated aortic rings of the rabbit in vitro; assay type: cell-based; conditions: Oryctolagus cuniculus, agonist angiotensin II, effect at 3rd = submaximal agonist concentration, read-out: IC50 against contractions induced by: AII
Method: Rabbits of both sexes are stunned by a blow to the neck and exsanguinated, or in some cases anaesthetised with Nembutal (about 60-80 mg/kg i.v.) and sacrificed by opening the thorax. The thoracic aorta is removed, freed from attached connective tissue and divided into ring segments 1.5 mm wide, and the segments are introduced individually, under an initial load of about 3.5 g, in 10 ml organ baths containing carbogen-gassed Krebs-Henseleit nutrient solution thermostatically controlled at 37° C. and having the following composition: 119 mmol/l of NaCl; 2.5 mmol/l of CaCl2 ×2H2 O; 1.2 mmol/l of KH2 PO4; 10 mmol/l of glucose; 4.8 mmol/l of KCl; 1.4 mmol/l of MgSO4 ×7H2 O and 25 mmol/l of NaHCO3.
The contractions are recorded isometrically by Statham UC2 cells via bridged amplifiers (ifd Mulheim or DSM Aalen) and are digitised and evaluated by means of an A/D converter (System 570, Keithley Munich). The agonist dose/effect curves (DEC) are plotted hourly. With every DEC, 3 or 4 individual concentrations are applied to the baths at intervals of 4 minutes. The end of the DEC and subsequent wash-out cycles (16 times for in each case about 5 seconds/minute with the above nutrient solution) is followed by a 28-minute rest or incubation phase, during which the contractions as a rule reach the starting value again.
The level of the third DEC in the normal case is used as the reference parameter for evaluation of the test substance which is to be investigated in subsequent passes and is applied to the baths for the following DECs at the start of the incubation time at a dosage which increases each time. Each aortic ring is stimulated over the whole day with always the same agonist.
(§1) ______________________________________
Agonists and their standard concentrations (Application
volume per individual dose = 100 μl):
as §1
For calculation of the IC50 (concentration at which the substance under investigation causes 50% inhibition), the particular effect at the 3rd=submaximal agonist concentration is taken as the basis.

[2] = test system: angiotensin II-infused rats; assay: Blood pressure measurements on angiotensin II-infused rats; assay type: in vivo, Male Wistar rats; conditions: angiotensin II-infused rats (0.3 μg/kg/minute), anaesthetised; dose 0.1 mg/kg p.o.
Method: Male Wistar rats (Moellegaard, Copenhagen, Denmark) with a body weight of 300-350 g are anaesthetised with thiopental (100 mg/kg i.p.). After tracheotomy, a catheter for blood pressure measurement is inserted into the femoral artery and a catheter for angiotensin II infusion and a catheter for administration of the substance are inserted into the femoral veins. After administration of the ganglion blocker pentolinium (5 mg/kg i.v.), the angiotensin II infusion (0.3 μg/kg/minute) is started. As soon as the blood pressure values have reached a stable plateau, the test substances are administered either intravenously, or orally as a suspension or solution in 0.5% of tylose. The changes in blood pressure under the influence of the substance are shown as the mean values ±SEM in the table.

[3] = target: T1, angiotensin II receptor (Bos taurus, UniProt P25104); assay: Interaction with the angiotensin II receptor on membrane fractions of the adrenal cortex; assay type: binding, cattle; conditions: bovine adrenal cortex membranes; 3H-angiotensin II (3-5 nM); 60 minutes at room temperature
T1 construct: partly purified membrane fractions of bovine AC with radioactive angiotensin II; from tissue; host or cells: bovine adrenal cortex, partly purified membrane fractions
T1 sequence (P25104 1-359): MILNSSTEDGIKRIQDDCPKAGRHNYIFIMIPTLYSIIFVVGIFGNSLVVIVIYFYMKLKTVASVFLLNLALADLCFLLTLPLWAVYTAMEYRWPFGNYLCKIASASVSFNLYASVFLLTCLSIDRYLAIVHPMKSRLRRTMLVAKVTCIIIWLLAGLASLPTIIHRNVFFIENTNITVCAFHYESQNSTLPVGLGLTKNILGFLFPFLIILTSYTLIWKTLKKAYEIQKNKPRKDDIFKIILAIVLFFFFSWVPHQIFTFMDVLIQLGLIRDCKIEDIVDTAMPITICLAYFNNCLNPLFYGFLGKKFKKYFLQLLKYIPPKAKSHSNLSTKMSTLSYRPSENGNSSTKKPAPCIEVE
Method: Adrenal cortices from cattle (AC), which are freshly removed and carefully freed from medulla of the capsule, are comminuted to a coarse membrane homogenate in sucrose solution (0.32M) with the aid of an Ultra-Turrax (Janke & Kunkel, Staufen i.B.), and the homogenate is partly purified to membrane fractions in two centrifugation steps.
The investigations on receptor bonding are carried out on partly purified membrane fractions of bovine AC with radioactive angiotensin II in an assay volume of 0.25 ml, which specifically contains the partly purified membranes (50-80 μg), 3H-angiotensin II (3-5 nM), test buffer solution (50 mM Tris, pH 7.2), 5 mM MgCl2 and the substances to be investigated. After an incubation time of 60 minutes at room temperature, the non-bonded radioactivity of the samples is separated off by means of a moistened glass fibre filter (Whatman GF/C) and, after the protein has been washed with ice-cold buffer solution (50 mM Tris/HCl, pH 7.4, 5% PEG 6000), the bonded radioactivity is measured by spectrophotometry in a scintillation cocktail. The raw data were analysed for Ki and IC50 values by computer programs (Ki : IC50 values corrected for the radioactivity used; IC50 values: concentration at which the substance under investigation causes 50% inhibition of the specific bonding of the radio ligand).

[4] = test system: smooth muscle cells; assay: Inhibition of proliferation of smooth muscle cells (3H-thymidine incorporation); assay type: cell-based; conditions: 10^-6 M, smooth muscle cells from aortas of rats or pigs
Method: Smooth muscle cells obtained from the aortas of rats or pigs by the media explantate technique [R. Ross, J. Cell. Biol. 50, 172, 1971] are used to determine the antiproliferative action of the compounds.
The cells are sown in suitable culture dishes, as a rule 24-hole plates, and cultured for 2-3 days in medium 199 with 7.5% of FCS and 7.5% of NCS, 2 mM L-glutamine and 15 mM HEPES, pH 7.4, in 5% CO2 at 37° C. The cells are then synchronised for 2-3 days by withdrawal of the serum, and subsequently stimulated into growth with AII, serum or other factors. Test compounds are added at the same time. […]

In the case of CCc1nc2c(C)cc(C)nc2n1Cc1ccc(S(=O)(=O)N2CCC[C@H]2C(=O)OC)cc1Cl [Example 20, S-4-[[2-Ethyl-imidazo[4,5-b]5,7-dimethyl-pyridin]-3-yl]methyl-3-chloro-benzenesulphonyl-N-(2-methoxy-carbonyl)pyrrolidinide], the IC50 [1] is reported as 6 nM and the “ΔP (change in blood pressure)” value [2] is reported as -48 mm Hg.

Work on COC(=O)[C@@H]1CCCN1S(=O)(=O)c1ccc(Cn2c(C3CC3)nc3c(C)ccnc32)c(Cl)c1 [Example 19] yielded an IC50 [1] of 6 nM.

For Cc1cc(C)c2nc(C3CC3)n(Cc3ccc(S(=O)(=O)N4CCC[C@H]4C(=O)O)cc3Cl)c2n1 [Example 39], the IC50 [1] was 3 nM and the “ΔP (change in blood pressure)” value [2] was -32 mm Hg.

For CCCCc1nc2cccnc2n1Cc1ccc(S(=O)(=O)N2CCCCC2C(=O)O)cc1Cl (racemic) [Example 2, rac-4-[{2-Butyl-imidazo[4,5-b]pyridin}-3-yl]methyl-3-chlorobenzenesulphonyl-N-(2-carboxy)piperidinide], the IC50 [1] was 326 nM, the Ki [3] was 1000 nM and the inhibition at 1 µM [4] was 40%.

Work on CCCCc1nc2cccnc2n1Cc1ccc(S(=O)(=O)N2CCC[C@H]2C(=O)O)cc1Cl [Example 5] yielded an IC50 [1] of 40 nM, a Ki [3] of 550 nM and an inhibition at 1 µM [4] of 70%.

For COC(=O)[C@@H]1CCCN1S(=O)(=O)c1ccc(Cn2c(C3CC3)nc3c(C)cc(C)nc32)c(Cl)c1 [Example 31], the IC50 [1] was 4 nM and the “ΔP (change in blood pressure)” value [2] was -62 mm Hg.

Compound CCc1nc2c(C)cc(C)nc2n1Cc1ccc(S(=O)(=O)N2CCC[C@H]2C(=O)O)cc1Cl [Example 41] has an IC50 [1] of 3 nM.
